Here are results for 1 molecule from publication PMC11897524 (Frontiers in Pharmacology, 2025).

One test concerns the target BRD2 (Homo sapiens, UniProt P25440). Briefly: Inhibitory effect on BET and STAT family members. Format: binding. From the text: (§1) TABLE 4 The inhibitory effect of BST-4 on other members of the BET and STAT families. | column: IC50 (μM)
For test [1], the target named is T1, BRDT (Homo sapiens, UniProt Q58F21). Description: Inhibitory effect on BET and STAT family members. Format: binding.
From the text: as §1

In test [2] the target is T2, STAT1 (Homo sapiens, UniProt P42224). Briefly: Inhibitory effect on BET and STAT family members. The format is binding.
T2 sequence (P42224 whole entry): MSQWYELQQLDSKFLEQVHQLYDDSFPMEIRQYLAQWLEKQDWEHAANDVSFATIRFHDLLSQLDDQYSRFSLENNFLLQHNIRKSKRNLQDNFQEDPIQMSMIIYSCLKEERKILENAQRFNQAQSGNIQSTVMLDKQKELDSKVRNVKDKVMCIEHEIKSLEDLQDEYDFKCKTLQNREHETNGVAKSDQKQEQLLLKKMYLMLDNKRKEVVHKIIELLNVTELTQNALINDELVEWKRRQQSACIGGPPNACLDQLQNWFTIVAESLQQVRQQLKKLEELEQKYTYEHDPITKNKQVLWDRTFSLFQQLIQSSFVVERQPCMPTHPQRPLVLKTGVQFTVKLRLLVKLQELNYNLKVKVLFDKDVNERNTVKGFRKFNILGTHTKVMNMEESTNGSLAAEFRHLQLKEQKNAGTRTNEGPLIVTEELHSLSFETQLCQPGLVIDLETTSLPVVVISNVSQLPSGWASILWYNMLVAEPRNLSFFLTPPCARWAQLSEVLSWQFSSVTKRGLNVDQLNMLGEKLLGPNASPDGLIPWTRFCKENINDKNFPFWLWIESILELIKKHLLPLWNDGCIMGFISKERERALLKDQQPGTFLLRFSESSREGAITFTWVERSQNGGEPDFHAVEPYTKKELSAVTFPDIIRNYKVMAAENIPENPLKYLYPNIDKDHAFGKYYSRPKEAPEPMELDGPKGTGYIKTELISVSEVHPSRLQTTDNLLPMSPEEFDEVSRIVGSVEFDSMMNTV
From the text: as §1

The target of a further test is STAT2 (Homo sapiens, UniProt P52630). Briefly: Inhibitory effect on BET and STAT family members. The format is binding.
From the text: as §1

The target in a further test is STAT4 (Homo sapiens, UniProt Q14765). Description: Inhibitory effect on BET and STAT family members. Format: binding.
Chain of STAT4 (Q14765 whole entry): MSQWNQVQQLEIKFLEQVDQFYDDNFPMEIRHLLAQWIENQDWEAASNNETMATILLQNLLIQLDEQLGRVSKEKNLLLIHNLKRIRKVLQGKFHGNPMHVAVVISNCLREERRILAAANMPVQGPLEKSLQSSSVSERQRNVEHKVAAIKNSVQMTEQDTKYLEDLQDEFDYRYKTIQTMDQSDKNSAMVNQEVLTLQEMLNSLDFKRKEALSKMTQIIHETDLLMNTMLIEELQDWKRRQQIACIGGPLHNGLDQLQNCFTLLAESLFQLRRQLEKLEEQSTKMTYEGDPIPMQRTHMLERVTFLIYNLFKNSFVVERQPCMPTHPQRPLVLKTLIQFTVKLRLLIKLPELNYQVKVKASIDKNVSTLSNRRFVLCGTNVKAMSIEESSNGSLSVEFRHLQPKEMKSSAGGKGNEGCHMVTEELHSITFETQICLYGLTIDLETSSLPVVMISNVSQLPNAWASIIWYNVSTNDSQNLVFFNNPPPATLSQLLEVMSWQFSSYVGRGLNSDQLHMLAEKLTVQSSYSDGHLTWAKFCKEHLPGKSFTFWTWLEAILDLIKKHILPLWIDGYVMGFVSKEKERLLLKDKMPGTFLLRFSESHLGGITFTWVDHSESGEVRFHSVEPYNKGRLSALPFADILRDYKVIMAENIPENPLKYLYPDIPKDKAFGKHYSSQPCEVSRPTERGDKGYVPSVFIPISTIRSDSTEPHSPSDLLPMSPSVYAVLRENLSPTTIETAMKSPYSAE
From the text: as §1

Another test has as its target STAT5b (Homo sapiens, UniProt P51692). Description: Inhibitory effect on BET and STAT family members. Format: binding.
From the text: as §1

A further test deals with BRD3 (Homo sapiens, UniProt Q15059). Briefly: Binding affinity to BET and STAT family members.
Chain of BRD3 (Q15059 whole entry): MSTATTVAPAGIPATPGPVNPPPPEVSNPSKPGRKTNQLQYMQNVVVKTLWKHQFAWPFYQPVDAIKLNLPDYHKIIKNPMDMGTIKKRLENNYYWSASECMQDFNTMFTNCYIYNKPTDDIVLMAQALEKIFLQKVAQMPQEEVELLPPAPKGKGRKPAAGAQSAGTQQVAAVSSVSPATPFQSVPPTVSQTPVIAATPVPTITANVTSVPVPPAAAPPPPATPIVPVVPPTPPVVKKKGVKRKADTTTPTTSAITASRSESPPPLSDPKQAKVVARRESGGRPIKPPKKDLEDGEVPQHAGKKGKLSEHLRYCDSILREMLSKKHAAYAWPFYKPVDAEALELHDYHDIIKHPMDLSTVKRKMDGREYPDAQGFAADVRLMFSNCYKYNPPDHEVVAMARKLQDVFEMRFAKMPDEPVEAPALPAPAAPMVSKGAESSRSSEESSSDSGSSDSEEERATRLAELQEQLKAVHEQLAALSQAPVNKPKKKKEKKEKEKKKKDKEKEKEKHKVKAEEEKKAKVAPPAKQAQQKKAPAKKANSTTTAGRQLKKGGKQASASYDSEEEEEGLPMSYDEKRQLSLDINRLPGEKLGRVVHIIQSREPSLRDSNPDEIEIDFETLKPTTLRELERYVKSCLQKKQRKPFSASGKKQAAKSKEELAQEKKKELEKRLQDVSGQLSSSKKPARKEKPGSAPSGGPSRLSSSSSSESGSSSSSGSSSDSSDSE
Test [3] addresses T1, BRDT. Description: Binding affinity to BET and STAT family members.
The target in test [4] is T2, STAT1. Briefly: Binding affinity to BET and STAT family members.
The next test deals with STAT6 (Homo sapiens, UniProt P42226). Description: Binding affinity to BET and STAT family members.
Chain of STAT6 (P42226 whole entry): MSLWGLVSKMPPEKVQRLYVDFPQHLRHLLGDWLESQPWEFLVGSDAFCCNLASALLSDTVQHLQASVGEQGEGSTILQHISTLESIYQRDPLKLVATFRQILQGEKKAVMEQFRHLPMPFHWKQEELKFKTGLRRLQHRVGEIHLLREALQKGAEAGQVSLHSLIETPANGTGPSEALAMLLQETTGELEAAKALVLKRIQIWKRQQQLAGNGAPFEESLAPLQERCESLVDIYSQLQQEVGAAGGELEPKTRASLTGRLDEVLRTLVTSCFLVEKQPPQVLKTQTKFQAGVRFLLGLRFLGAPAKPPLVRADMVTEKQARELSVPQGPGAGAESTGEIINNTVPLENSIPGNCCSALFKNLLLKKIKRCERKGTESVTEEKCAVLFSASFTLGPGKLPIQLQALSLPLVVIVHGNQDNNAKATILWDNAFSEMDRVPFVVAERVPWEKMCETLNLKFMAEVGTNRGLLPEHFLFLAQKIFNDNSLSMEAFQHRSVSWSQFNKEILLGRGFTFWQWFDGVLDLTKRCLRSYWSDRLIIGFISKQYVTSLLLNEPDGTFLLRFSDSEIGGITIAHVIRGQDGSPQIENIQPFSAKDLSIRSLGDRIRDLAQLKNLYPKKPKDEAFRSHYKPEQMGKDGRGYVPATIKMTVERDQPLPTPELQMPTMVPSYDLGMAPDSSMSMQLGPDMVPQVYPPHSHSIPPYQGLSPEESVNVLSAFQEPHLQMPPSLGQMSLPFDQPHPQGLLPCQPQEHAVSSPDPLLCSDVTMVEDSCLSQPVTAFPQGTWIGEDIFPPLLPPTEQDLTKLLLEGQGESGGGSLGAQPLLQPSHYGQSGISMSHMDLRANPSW
For a further test, the system named is CAKI-2 cells. Briefly: MTT cytotoxicity assay. Format: cell-based, human. The protocol: Human normal renal cortical proximal tubular epithelial cell line HK-2 and human renal carcinoma cell lines CAKI-2, SLR-23, 769-P, A704 and RCC4 were previously purchased from the American Type Culture Collection (ATCC, Manassas, VA, USA) or the European Collection of Cell Cultures (ECACC, Salisbury, United Kingdom). HK2, A704, and RCC4 cells were maintained in high glucose DMEM supplemented with 10% FBS and 1% penicillin/streptomycin. SLR-23 and […] cells were cultured in RPMI-1640 medium with 10% FBS and 1% penicillin/streptomycin. CAKI-2 cells were maintained in McCoy’s 5A medium supplemented with 10% FBS and 1% penicillin/streptomycin. All the cell lines were cultured at 37°C in a humidified atmosphere of 5% CO2 and 95% air.
The effect of hit compounds on cytotoxicity was determined as previously reported ([Ding et al., 2020]). In brief, cells treated with the tested compounds were added with MTT reagent to form formazan crystals, and then the optical density (OD) values at 570 nm were determined after the crystals were dissolved in DMSO. […] Next, the values of IC50 of the selected compounds against more RCC cell lines were determined. The 5 × 10^3 cells in 100 μL culture medium were injected into each well of a 96-well plate and cultured overnight. Add different concentrations of compounds and incubate for 48 h. Then 100 μL of MTT (0.5 mg/mL) solution was added to the 96-well plate and maintained at 37°C for 4 h. Finally, 200 μL of DMSO was added and shaken for 10 min. The OD values at 570 nm were determined by a Synergy 4 microplate reader.
In general terms: Tetrazolium dyes change colour on reduction, which living cells bring about.

A further test has as its system c-myc mRNA. Description: RT-qPCR of c-myc mRNA in CAKI-2 cells. The format is cell-based, human. The conditions noted are these: 24 h, different concentrations. The protocol: This method was performed as previously reported. Briefly, the CAKI-2 cells were seeded into 6-well plates and cultured overnight, and treated with different concentrations of BST-4 for 24 h. RNA was extracted from cells and tissues using Trizol reagent and reverse transcribed using PrimeScriptRTase. cDNA was used for RT-qPCR SYBR Green assays (Takara). The relative levels of c-myc mRNA were calculated as [(c-myc mRNA in the treatment group)/(β-actin mRNA in the treatment group)]/[(c-myc mRNA in the control group)/(β-actin mRNA in the control group).
(In general: Quantitative PCR measures a nucleic acid by following its amplification.)

For test [5], the system named is panel of 76 human kinases. Briefly: SelectScreen kinase selectivity panel. The format is biochemical. The protocol: The kinase selectivity profile of BST-4 was performed by the SelectScreen kinase profiling service (Thermo Fisher Scientific). Kinase selectivity assay was performed using Z′-LYTE ™ screening protocol kit. Briefly, the test compounds were screened in 1% DMSO (final). For 10-point titrations, perform a 3-fold dilution starting at a starting concentration of 50 µM. Then 2.5 µL 4× test compound, 2.4 µL kinase buffer, 5 µL 2× kinase mixture and 2.5 µL 4× ATP solution was added in black 384-well plate. After shaking for 30 s, the plates were incubated for 60 min at room temperature. Add developing reagent solution and shake the plate for 30 s, then incubate for 1 h at room temperature. The Fluorescence intensity per well was read using a fluorescence plate reader. SelectScreen® Kinase Profiling Service used XLfit from IDBS. The dose response curve was curve fit to model number 205 (sigmoidal dose-response model) and inhibition rates were calculated. 50% inhibition was used as a activity threshold. IC50 values were calculated based on curve fitting.

Another test addresses BRD4 (Homo sapiens, UniProt O60885). Description: NanoBRET assay in HEK293T cells. Format: cell-based. Also on record: NanoLuc BRD4/STAT3 FL Fusion Vector DNA; expressed in transfected cells; host or cells: HEK293T. The protocol:
(§2) The method was performed as previously reported ([Horai et al., 2024]). Briefly, HEK293T cells were seeded in dishes and allow the cells to attach and recover for overnight. The mixture of Histone H4 HaloTag Fusion vector DNA, NanoLuc BRD4/STAT3 FL Fusion Vector DNA, opti-MEM, and FuGENE HD was added dropwise to the HEK293T cells followed by incubation for 20–24 h at 37°C and 5% CO2 and allow the proteins to express. The cells were collected and re-seeded in 384 well plates. HaloTag NanoBRET 618 Ligand was added to plate and allow the cells to attach and recover for 4 h. Serially diluted compounds were transferred to the plate and incubated the plate overnight. Then NanoBRET Nano-Glo Substrate in Opti-MEM was added, and shake plate to mix. The donor emission (450 nm) and acceptor emission (610 nm), BRET signal, were measured within 10 min of substrate addition using microplate reader (Envision, PerkinElmer). Data analysis was done by measuring the ratio of acceptor emission to donor emission (BRET ratio). IC50 values and curve fits were obtained using GraphPad Prism 7.0 software.

The next test concerns the target STAT3 (Homo sapiens, UniProt P40763). Description: NanoBRET assay in HEK293T cells. Format: cell-based. Also on record: NanoLuc BRD4/STAT3 FL Fusion Vector DNA; expressed in transfected cells; host or cells: HEK293T. The protocol:
as §2
A general note: In BRET a luciferase serves as donor, and the signal depends on an acceptor being close.

Chain of STAT5b (P51692 whole entry): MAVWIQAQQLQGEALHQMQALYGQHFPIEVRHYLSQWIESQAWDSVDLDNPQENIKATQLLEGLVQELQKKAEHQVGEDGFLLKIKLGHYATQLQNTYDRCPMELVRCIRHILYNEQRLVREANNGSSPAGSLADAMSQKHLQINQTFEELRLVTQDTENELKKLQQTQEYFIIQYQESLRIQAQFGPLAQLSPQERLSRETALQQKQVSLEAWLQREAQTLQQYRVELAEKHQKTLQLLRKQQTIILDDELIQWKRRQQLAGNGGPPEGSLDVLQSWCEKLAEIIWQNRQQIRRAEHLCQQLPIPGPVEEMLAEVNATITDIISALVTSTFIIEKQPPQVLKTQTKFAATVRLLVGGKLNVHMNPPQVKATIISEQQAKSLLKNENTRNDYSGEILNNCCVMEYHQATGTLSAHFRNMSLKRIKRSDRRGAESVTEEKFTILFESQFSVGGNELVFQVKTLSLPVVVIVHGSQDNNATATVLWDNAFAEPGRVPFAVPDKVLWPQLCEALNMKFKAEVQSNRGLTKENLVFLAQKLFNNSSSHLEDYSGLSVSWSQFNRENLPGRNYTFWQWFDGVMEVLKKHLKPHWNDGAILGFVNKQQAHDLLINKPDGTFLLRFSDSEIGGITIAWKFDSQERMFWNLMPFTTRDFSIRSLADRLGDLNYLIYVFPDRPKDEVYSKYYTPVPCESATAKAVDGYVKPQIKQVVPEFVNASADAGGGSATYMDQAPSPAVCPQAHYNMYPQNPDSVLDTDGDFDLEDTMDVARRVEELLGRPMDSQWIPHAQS
Chain of BRD2 (P25440 whole entry): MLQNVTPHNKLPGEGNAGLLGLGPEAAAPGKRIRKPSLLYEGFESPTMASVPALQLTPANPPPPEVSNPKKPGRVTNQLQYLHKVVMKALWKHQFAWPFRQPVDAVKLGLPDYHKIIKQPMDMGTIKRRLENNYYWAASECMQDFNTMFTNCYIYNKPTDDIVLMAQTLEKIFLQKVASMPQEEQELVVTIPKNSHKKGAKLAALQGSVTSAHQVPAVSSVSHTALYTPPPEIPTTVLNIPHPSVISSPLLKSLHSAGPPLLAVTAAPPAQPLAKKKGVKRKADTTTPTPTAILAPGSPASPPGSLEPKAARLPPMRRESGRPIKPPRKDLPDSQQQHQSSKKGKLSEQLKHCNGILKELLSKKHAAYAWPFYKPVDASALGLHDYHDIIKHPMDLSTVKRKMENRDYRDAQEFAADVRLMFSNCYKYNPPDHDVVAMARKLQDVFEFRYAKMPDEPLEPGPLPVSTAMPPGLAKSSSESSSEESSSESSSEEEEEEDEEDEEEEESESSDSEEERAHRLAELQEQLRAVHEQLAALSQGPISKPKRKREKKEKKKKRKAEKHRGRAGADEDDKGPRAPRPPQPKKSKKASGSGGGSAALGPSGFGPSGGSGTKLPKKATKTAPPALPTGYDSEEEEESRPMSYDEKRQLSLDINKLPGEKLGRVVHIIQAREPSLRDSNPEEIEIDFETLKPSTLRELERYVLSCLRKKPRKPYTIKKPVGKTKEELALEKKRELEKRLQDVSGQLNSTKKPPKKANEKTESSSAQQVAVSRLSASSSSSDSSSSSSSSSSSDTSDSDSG

Turning to `CCS(=O)(=O)Cc1cnc(Oc2c(F)cc(F)cc2OCCCCOc2ccc(/C=C/c3cc(OC)cc(OC)c3)cc2)c(-c2cc(C)c3c(=O)[nH]ccn23)c1` [BST-4], the IC50 against BRD2, against BRDT [1], on STAT1 [2], against STAT2, on STAT4 and against STAT5b was above 10 µM throughout. For the same molecule, the IC50 (in general, the point on the concentration scale where inhibition reaches its midpoint) in the test with CAKI-2 cells (Homo sapiens, CAKI-2, cell growth, 48 h treatment, read-out: IC50 (μM) ± SD CAKI-2) was 0.76 ± 0.05 µM; in test [5] (read-out: IC50 on panel of 76 human kinases, all kinases of the panel), above 10 µM; at BRD4, 0.00258 ± 7e-05 µM; on STAT3 it was 0.00517 ± 9e-05 µM. Besides, the Kd on BRD3, at BRDT [3], on STAT1 [4] and at STAT6 was above 10 µM each time. In the test with CAKI-2 cells (all compounds at the same concentration), the “cell inhibitory rate (%) against CAKI-2 cells” value is listed as “more than 95%”. The “expression of c-myc mRNA in CAKI-2 cells” value in the test on c-myc mRNA was “strongly dose-dependent downregulated”. In addition, the “inhibition of all 76 kinases at 1 µM” value in test [5] (1 µM) was “less than 10%”.
